Test results taken from US20100144755A1 (Glaxo Group Limited, priority 2006, published 2010).

Tests used:
[1] = test system: influx of neutrophils to the lung in LPS-challenged rats; assay: Rat LPS neutrophilia model; format: in vivo; conditions: LPS aerosol, intratracheal dosing, in at least one of the range of conditions tested, significance p<0.05
Method in brief: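 Compound given intratracheally (200 ul suspension or dry powder via microsprayer) to isoflurane-anesthetized rats 15 min–24 h before 15 min LPS aerosol (100 ug/ml). Lavage 4 h post-challenge; neutrophils from differential counts. % inhibition versus no-compound controls at a given concentration and pretreat time.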

[2] = test system: TNF-stimulated IL8 production by human neutrophils; assay: TNF-stimulated IL-8 production from human neutrophils; format: cell-based; conditions: Neutrophil, TNF 100 ng/ml, about 20 hrs, bounds reflect the top concentration screened, for 202(c) and 120 a range over multiple runs with ends given as 'greater than';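 also: IL-8 in cell-free supernatant quantified by sandwich ELISA, inhibition calculated against a compound-free control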
Description: TNF-Stimulated IL-8 Production from Human Neutrophils
The effect of test compounds on TNF-stimulated IL8 production by human neutrophils is measured as follows. Neutrophils are prepared from blood obtained from consenting donors, using standard methods. Blood is collected in heparinized syringes and layered over histopaque (30 ml/20 ml). Following centrifugation, the red cell pellet is resuspended in PBS and purified over a dextran gradient. […] Cells are added (0.5-1 ml) to 48 well plates already containing compound at 1000× final concentration in neat DMSO or 10% DMSO in RPMI1640 with 10% FBS. TNF (final concentration 100 ng/ml) is used as the stimulus. Cells incubated for approximately 20 hrs at 37° C., 5% CO2. Levels of IL-8 in the cell free supernatant are determined by sandwich ELISA, and inhibition relative to a control with DMPO but no compound is calculated.

Cc1c(F)cc(C(=O)NC2CC2)cc1-c1nc(NC(CO)CO)nc2c1ccc(=O)n2-c1c(F)cccc1F [18(e), N-cyclopropyl-3-(8-(2,6-difluorophenyl)-2-{[2-hydroxy-1-(hydroxymethyl)ethyl]amino}-7-oxo-7,8-dihydropyrido[2,3-d]pyrimidin-4-yl)-5-fluoro-4-methylbenzamide]
melting point: 214.2 to 217.5 °C

Cc1ccc(C(=O)NC2CC2)cc1-c1nc(NC2CC(C)(C)NC(C)(C)C2)nc2c1ccc(=O)n2-c1c(F)cccc1F [21(c)]
melting point: 326.3 to 327.9 °C

Cc1ccc(C(=O)NCc2ccccc2)cc1-c1nc(NCc2ncc[nH]2)nc2c1ccc(=O)n2-c1c(F)cccc1F [116(c), 3-{8-(2,6-difluorophenyl)-2-[(1H-imidazol-2-ylmethyl)amino]-7-oxo-7,8-dihydropyrido[2,3-d]pyrimidin-4-yl}-4-methyl-N-(phenylmethyl)benzamide]
melting point: 185 to 190 °C (dec.)

CCCNCCNc1nc(-c2cc(C(=O)NC3CC3)ccc2C)c2ccc(=O)n(-c3c(F)cccc3F)c2n1 [Example 24, N-cyclopropyl-3-(8-(2,6-difluorophenyl)-7-oxo-2-{[2-(propylamino)ethyl]amino}-7,8-dihydropyrido[2,3-d]pyrimidin-4-yl)-4-methylbenzamide]
melting point: 120 to 134 °C
inhibition of neutrophilia [1]: statistically nonsignificant inhibition

Cc1ccc(C(=O)NC2CC2)cc1-c1nc(NCCN(C)C)nc2c1ccc(=O)n2-c1c(F)cccc1F [Example 25]
melting point: 214.7 to 217.5 °C
inhibition of neutrophilia [1]: statistically nonsignificant inhibition

Cc1ccc(NC(=O)c2ccsc2)cc1-c1nc(N2CCC(N)CC2)nc2c1ccc(=O)n2-c1c(F)cccc1F [Example 32, N-{3-[2-(4-amino-1-piperidinyl)-8-(2,6-difluorophenyl)-7-oxo-7,8-dihydropyrido[2,3-d]pyrimidin-4-yl]-4-methylphenyl}-3-thiophenecarboxamide]
melting point: 183.8 to 187.9 °C
inhibition of neutrophilia [1]: statistically nonsignificant inhibition

CCCNC(=O)c1ccc(C)c(-c2nc(N(C)CCCN(C)C)nc3c2ccc(=O)n3-c2c(F)cccc2F)c1 [Example 104, 3-{8-(2,6-difluorophenyl)-2-[[3-(dimethylamino)propyl](methyl)amino]-7-oxo-7,8-dihydropyrido[2,3-d]pyrimidin-4-yl}-4-methyl-N-propylbenzamide]
melting point: 104 to 109 °C
inhibition of neutrophilia [1]: statistically significant inhibition

CCCNC(=O)c1ccc(C)c(-c2nc(NCCN(C)C)nc3c2ccc(=O)n3-c2c(F)cccc2F)c1 [Example 105, 3-(8-(2,6-difluorophenyl)-2-{[2-(dimethylamino)ethyl]amino}-7-oxo-7,8-dihydropyrido[2,3-d]pyrimidin-4-yl)-4-methyl-N-propylbenzamide]
melting point: 139 to 142 °C
inhibition of neutrophilia [1]: statistically significant inhibition

CCCNC(=O)c1ccc(C)c(-c2nc(NCCN(C)C(=O)OC(C)(C)C)nc3c2ccc(=O)n3-c2c(F)cccc2F)c1 [Example 106, 1,1-dimethylethyl{2-[(8-(2,6-difluorophenyl)-4-{2-methyl-5-[(propylamino)carbonyl]phenyl}-7-oxo-7,8-dihydropyrido[2,3-d]pyrimidin-2-yl)amino]ethyl}methylcarbamate]
melting point: 115 to 118 °C

CCN(CC)CCCNc1nc(-c2cc(C(=O)N[C@H](C)C(C)C)ccc2C)c2ccc(=O)n(-c3c(F)cccc3F)c2n1 [Example 130, 3-[2-{[3-(diethylamino)propyl]amino}-8-(2,6-difluorophenyl)-7-oxo-7,8-dihydropyrido[2,3-d]pyrimidin-4-yl]-N-[(1R)-1,2-dimethylpropyl]-4-methylbenzamide]
IC50 [2]: > 10 nM
inhibition of neutrophilia [1]: statistically nonsignificant inhibition

Cc1ccc(C(=O)NCC(C)(C)C)cc1-c1nc(N2CCC(N3CCC(C)CC3)CC2)nc2c1ccc(=O)n2-c1c(F)cccc1F [Example 171, 3-[8-(2,6-difluorophenyl)-2-(4-methyl-1,4′-bipiperidin-1′-yl)-7-oxo-7,8-dihydropyrido[2,3-d]pyrimidin-4-yl]-N-(2,2-dimethylpropyl)-4-methylbenzamide]
IC50 [2]: > 100 nM

CCN(CC)CCCNc1nc(-c2ccc(C(=O)NC(C)C)cc2)c2ccc(=O)n(-c3c(F)cccc3F)c2n1 [Example 189, 4-[2-{[3-(diethylamino)propyl]amino}-8-(2,6-difluorophenyl)-7-oxo-7,8-dihydropyrido[2,3-d]pyrimidin-4-yl]-N-(1-methylethyl)benzamide]
IC50 [2]: > 100 nM

CCN(CC)CCCNc1nc(-c2ccc(C(=O)NC3CC3)cc2)c2ccc(=O)n(-c3c(F)cccc3F)c2n1 [Example 190, N-cyclopropyl-4-[2-{[3-(diethylamino)propyl]amino}-8-(2,6-difluorophenyl)-7-oxo-7,8-dihydropyrido[2,3-d]pyrimidin-4-yl]benzamide]
IC50 [2]: > 30 nM

CCN(CC)CCCNc1nc(-c2ccc(C(=O)Nc3ccc(F)cc3)cc2)c2ccc(=O)n(-c3c(F)cccc3F)c2n1 [Example 191, 4-[2-{[3-(diethylamino)propyl]amino}-8-(2,6-difluorophenyl)-7-oxo-7,8-dihydropyrido[2,3-d]pyrimidin-4-yl]-N-(4-fluorophenyl)benzamide]
IC50 [2]: > 100 nM

CCN(CC)CCCNc1nc(-c2ccc(C(=O)Nc3nccs3)cc2)c2ccc(=O)n(-c3c(F)cccc3F)c2n1 [Example 192, 4-[2-{[3-(diethylamino)propyl]amino}-8-(2,6-difluorophenyl)-7-oxo-7,8-dihydropyrido[2,3-d]pyrimidin-4-yl]-N-1,3-thiazol-2-ylbenzamide]
IC50 [2]: > 100 nM
